Here are results for 22 molecules from patent US11236055B2 (Venenum Biodesign, LLC, priority 2016, dated 2022).

pEC50: −log10 of the molar value. Where only a bound is given, the exact number is not on record here.

The term pEC50 denotes the EC50 on a negative log10 scale, so that one unit is a factor of ten. High values mean a low EC50, low ones a high EC50. In general, Cmax refers to the highest concentration seen after dosing.

The target of one data set is T1, mouse TGR5 receptor (Mus musculus, UniProt Q80SS6).
T1 construct: expressed in transfected cells; host or cells: HEK293-EBNA (293 c18, ATCC CRL10852), Hygromycin B selection
T1 sequence (Q80SS6 1-329): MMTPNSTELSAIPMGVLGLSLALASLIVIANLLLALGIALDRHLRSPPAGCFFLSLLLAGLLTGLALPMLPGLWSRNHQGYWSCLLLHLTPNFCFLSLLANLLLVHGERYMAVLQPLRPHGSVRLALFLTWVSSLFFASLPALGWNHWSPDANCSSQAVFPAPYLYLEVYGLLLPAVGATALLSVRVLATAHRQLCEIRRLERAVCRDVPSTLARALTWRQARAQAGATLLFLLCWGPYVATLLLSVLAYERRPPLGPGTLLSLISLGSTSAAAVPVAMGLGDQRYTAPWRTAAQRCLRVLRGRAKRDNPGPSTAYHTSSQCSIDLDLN
Briefly: Mouse TGR5 cAMP production assay (HTRF, Cisbio cAMP HiRange). Format: cell-based. To be noted: HEK293-EBNA cells overexpressing mouse TGR5, HTRF cAMP HiRange; coded A-D. The gist of the method: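 cAMP read by HTRF competition after 1 h room-temperature compound exposure of mouse TGR5-overexpressing HEK293-EBNA cells. Cells were suspended in serum-free DMEM containing 500 μM IBMX; compounds ran as 12-point half-log dilutions in duplicate; EC50 derived.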

Data set [1] in a line: Pharmacokinetic profile in mice. Format: in vivo. The following applies: mouse; fasted male Hilltop mice, 10 mg/kg oral gavage, plasma, mean of three mice. How it is done: Pharmacokinetic Profile in Mice
In this series of studies, the pharmacokinetic profile characteristics of compounds of the present invention were evaluated. The plasma concentration levels of the compounds were monitored in the blood stream (i.e., plasma) after oral gavage using Cmax, and area under the curve (AUC).
8 week old male Hilltop mice were fasted overnight. Animals were randomized into groups (n=9) by body weight. Mice were dosed with 10 mg/kg compound (in 20% PEG400/80% 0.5% carboxymethylcellulose (medium viscosity)+0.25% Tween-80) at a volume of 10 mL/kg through oral gavage. Blood was collected via orbital bleeding at 0, 0.25, 0.5, 1, 2, and 4 h post-dose, with no one mouse having more than 3 blood draws. Blood was collected in EDTA coated tubes. Samples were stored at −20° C. until analysis.
Quantitation of compound levels in plasma was accomplished by LC-MS/MS analysis. Standard curve and quality control samples were prepared in male CD-1 mouse plasma containing EDTA K^2+ as an anticoagulant at final concentrations ranging from 500 to 0.1 ng/mL. The plasma samples, calibration curve standards, and quality control samples were prepared in an identical method in a 96-well deep plate (1 mL) with a quenching solution (1:1 mixed acetonitrile:methanol containing the internal standard Reserpine @ 400 ng/mL). Low volume samples were supplemented with CD-1 mouse plasma. The plate was mixed on multi-tube votex for 1 min and centrifuged at 4000 rpm for 30 min at 4° C. (Sorvall® Super T21) before LC-MS/MS analysis. LC conditions were developed and optimized based on each compound as needed. The outlet of the column was coupled to AB Sciex 4000 QTrap Mass Spectrometer (AB Sciex, Brugg Switzerland). Detection was carried out using multiple reaction monitoring mode with positive-ion detection focusing. The pharmacokinetic parameters were derived from the plasma-time data and calculated using the standard non-compartmental method with WinNonlin (Pharsight, Mountain View, Calif.) or PK Solver (Comp. Meth. Prog. Biomed. (2010), 99, 306-314).
Values reported are the mean plasma concentration of three mice.

`CCc1cnccc1-c1cccc(C2CN(C(=O)CCC(=O)O)CCN2S(=O)(=O)c2cccc(Cl)c2C)c1` (racemic) [Compound 46, (+/−) 4-(4-((3-Chloro-2-methylphenyl)sulfonyl)-3-(3-(3-ethylpyridin-4-yl)phenyl)piperazin-1-yl)-4-oxobutanoic acid]: the negative logarithm of the EC50 (pEC50) on mouse TGR5 receptor was over 7.00. The peak level in data set [1] (Cmax) was 436 ng/mL.
At mouse TGR5 receptor, `CCc1cnccc1-c1cccc(C(C)(C)NS(=O)(=O)c2ccccc2C(F)(F)F)c1` [Compound 5, N-(2-(3-(3-ethylpyridin-4-yl)phenyl)propan-2-yl)-2-(trifluoromethyl)benzenesulfonamide] showed a pEC50 of over 7.00. Also, the Cmax in data set [1] came out at 3.1 ng/mL.
In data set [1], `Cc1cnccc1-c1cccc(C(C)(C)NS(=O)(=O)c2cccc(C(F)(F)F)c2)c1` [Compound 5AA, N-(2-(3-(3-methylpyridin-4-yl)phenyl)propan-2-yl)-3-(trifluoromethyl)benzenesulfonamide] registered a Cmax of 128 ng/mL.
Molecule `Cc1cnccc1-c1cccc(C(C)(C)N(CCCC(=O)O)S(=O)(=O)c2ccccc2C(F)(F)F)c1` [Compound 14, 4-(N-(2-(3-(3-methylpyridin-4-yl)phenyl)propan-2-yl)-2-(trifluoromethyl)phenylsulfonamido)butanoic acid] showed a pEC50 on mouse TGR5 receptor of over 7.00. The molecule also registered a Cmax in data set [1] of 1080 ng/mL.
The matching figures for `Cc1cnccc1-c1cccc(C(C)(C)N(CCCC(=O)NCS(=O)(=O)O)S(=O)(=O)c2ccccc2C(F)(F)F)c1` [Compound 20AB]: over 7.00 and 1.5 ng/mL.
Taken in the same sequence, the figures for `Cc1cnccc1-c1cccc([C@H](C)N(CCCCC(=O)NCCS(=O)(=O)O)S(=O)(=O)c2cccc(Cl)c2C)c1` [Compound 20AH, (S)-2-(5-(3-chloro-2-methyl-N-(1-(3-(3-methylpyridin-4-yl)phenyl)ethyl)phenylsulfonamido)pentanamido)ethanesulfonic acid] were over 7.00 and 0.9 ng/mL.
Taken in the same sequence, the figures for `CCc1cnccc1-c1cccc([C@H](C)N(CCCC(=O)NC[C@@H](O)[C@H](O)[C@@H](O)[C@@H](O)CO)S(=O)(=O)c2cccc(Cl)c2C)c1` [Compound 20AN, 4-(3-chloro-N-((S)-1-(3-(3-ethylpyridin-4-yl)phenyl)ethyl)-2-methylphenylsulfonamido)-N-((2R,3S,4S,5S)-2,3,4,5,6-pentahydroxyhexyl)butanamide] were over 7.00 and 1.7 ng/mL.
Molecule `CCc1cnccc1-c1cccc([C@H](C)N(CCCC(=O)NCCS(=O)(=O)O)S(=O)(=O)c2ccccc2C)c1` [Compound 20AR, (S)-2-(4-(N-(1-(3-(3-ethylpyridin-4-yl)phenyl)ethyl)-2-methylphenyl-sulfonamido)butanamido)ethane sulfonic acid] gave a pEC50 at mouse TGR5 receptor of over 7.00. Besides, the Cmax in data set [1] was 3.2 ng/mL.
In the case of `Cc1cnccc1-c1cccc([C@H](C)N(CCCCC(=O)NCCS(=O)(=O)NCCC(=O)O)S(=O)(=O)c2ccccc2C(F)(F)F)c1` [Compound 20BM], on mouse TGR5 receptor, the negative logarithm of the EC50 (pEC50) was over 7.00. This molecule had a Cmax in data set [1] of 0.6 ng/mL.
Taken in the same sequence, the figures for `CCc1cnccc1-c1cccc([C@H](C)N(CCCC(=O)NCCS(=O)(=O)NCC(=O)O)S(=O)(=O)c2ccccc2C)c1` [Compound 20BU, (S)-2-(4-(2-methyl-N-(1-(3-(3-ethylpyridin-4-yl)phenyl)ethyl)phenylsulfonamido)butanamidoethylsulfonamido)acetate] were over 7.00 and 1.1 ng/mL.
Taken in the same sequence, the figures for `Cc1cnccc1-c1cccc([C@H](C)N(CCCC(=O)NCCS(=O)(=O)NCCC(=O)O)S(=O)(=O)c2cccc(Cl)c2C)c1` [Compound 21AL] were over 7.00 and 7.6 ng/mL.
The matching figures for `Cc1cnccc1-c1cccc([C@H](C)N(CCCC(=O)NCCS(=O)(=O)NCC(=O)O)S(=O)(=O)c2cccc(Cl)c2C)c1` [Compound 21AN, (S) 2-(3-(4-(3-chloro-2-methyl-N-(1-(3-(3-methylpyridin-4-yl)phenyl)ethyl)phenylsulfonamido)butanamido)ethylsulfonamido)acetic acid]: over 7.00 and 1.9 ng/mL.
For the molecule `Cc1cnccc1-c1cccc([C@H](C)N(CCCC(=O)NCCNS(=O)(=O)CC(=O)O)S(=O)(=O)c2cccc(Cl)c2C)c1` [Compound 26AA], the pEC50 at mouse TGR5 receptor was over 7.00. The molecule also registered a Cmax in data set [1] of 1.4 ng/mL.
At mouse TGR5 receptor, `Cc1cnccc1-c1cccc([C@H](C)N(CCCC(=O)NCCNS(=O)(=O)CCC(=O)O)S(=O)(=O)c2cccc(Cl)c2C)c1` [Compound 26AB] had a pEC50 of over 7.00. The Cmax in data set [1] turned out to be 2.6 ng/mL.
In turn, `Cc1cnccc1-c1cccc([C@H](C)N(CCCCNC(=O)NCCS(=O)(=O)NCC(=O)O)S(=O)(=O)c2ccccc2C(F)(F)F)c1` [Compound 28AA, (S)-2-(3-(4-(N-(1-(3-(3-methylpyridin-4-yl)phenyl)ethyl)-2-(trifluoromethyl)phenylsulfonamido)butyl)ureido)ethanesulfonamido acetic acid] showed a pEC50 at mouse TGR5 receptor of 6.00 to 7.00. The molecule further came in with a Cmax in data set [1] of 0.7 ng/mL.
Taken in the same sequence, the figures for `Cc1cnccc1-c1cccc([C@H](C)N(CCCCNC(=O)NCS(=O)(=O)O)S(=O)(=O)c2ccccc2C(F)(F)F)c1` [Compound 28AC, (S)-(3-(4-(N-(1-(3-(3-methylpyridin-4-yl)phenyl)ethyl)-2-(trifluoromethyl)phenylsulfonamido)butyl)ureido)methanesulfonic acid] were over 7.00 and 0.8 ng/mL.
Taken in the same sequence, the figures for `CCc1cnccc1-c1cccc([C@H](C)N(CCCCNC(=O)NCS(=O)(=O)O)S(=O)(=O)c2ccccc2C(F)(F)F)c1` [Compound 28AH, (S)-(3-(4-(N-(1-(3-(3-ethylpyridin-4-yl)phenyl)ethyl)-2-(trifluoromethyl)phenylsulfonamido)butyl)ureido)methanesulfonic acid] were over 7.00 and 4.6 ng/mL.
`Cc1cnccc1-c1cccc(C(C)(C)N(CCCNC(=O)NCS(=O)(=O)O)S(=O)(=O)c2cccc(Cl)c2C)c1` [Compound 29, (3-(3-((3-Chloro-2-methyl-N-(2-(3-(3-methylpyridin-4-yl)phenyl)propan-2-yl)phenyl)sulfonamide)propyl)ureido) methanesulfonic acid] showed a pEC50 on mouse TGR5 receptor of 6.00 to 7.00. This molecule had a Cmax in data set [1] of 2.5 ng/mL.
In the case of `Cc1cnccc1-c1cccc(C(C)(C)N(CCCNC(=O)NCCS(=O)(=O)O)S(=O)(=O)c2cccc(Cl)c2C)c1` [Compound 29AA, 2-(3-(3-((3-Chloro-2-methyl-N-(2-(3-(3-methylpyridin-4-yl)phenyl)propan-2-yl)phenyl)sulfonamide)propyl)ureido)ethane-1-sulfonic acid], the pEC50 at mouse TGR5 receptor was over 7.00. The same molecule came in with a maximum concentration (Cmax) in data set [1] of 1.5 ng/mL.
`Cc1cnccc1-c1cccc([C@H](C)N(CCCCNC(=O)CS(=O)(=O)O)S(=O)(=O)c2ccccc2C(F)(F)F)c1` [Compound 31AA, (S)-2-((4-(N-(1-(3-(3-methylpyridin-4-yl)phenyl)ethyl)-2-(trifluoromethyl)phenylsulfonamido)butyl)amino)-2-oxoethanesulfonic acid] had a pEC50 at mouse TGR5 receptor of over 7.00. In addition, the highest concentration (Cmax) in data set [1] worked out at 4.4 ng/mL.
The matching figures for `Cc1cnccc1-c1cccc([C@H](C)N(CCCCNC(=O)[C@@H](N)CS(=O)(=O)O)S(=O)(=O)c2ccccc2C(F)(F)F)c1` [Compound 31AC, (R)-2-amino-3-((4-(N-((S)-1-(3-(3-methylpyridin-4-yl)phenyl)ethyl)-2-(trifluoromethyl)phenylsulfonamido)butyl)amino)-3-oxopropane-1-sulfonic acid]: over 7.00 and 1.8 ng/mL.
The matching figures for `CCc1cnccc1-c1cccc([C@H](C)N(CCCC(=O)NCCNS(N)(=O)=O)S(=O)(=O)c2cccc(Cl)c2C)c1` [Compound 37AA, (S)-4-(3-chloro-N-(1-(3-(3-ethylpyridin-4-yl)phenyl)ethyl)-2-methylphenylsulfonamido)-N-(2-(sulfamoylamino)ethyl)butanamide]: over 7.00 and 39.4 ng/mL.
